Experimental findings from patent publication US9719127B2, “Dual inducible vectors and cell lines” (priority 2012, dated 2017) are described below.

In one assay the test system is X4-tropic viruses. In words: GGR cell G.Luc signal with X4-tropic viruses. Particulars: GGR cells, low endogenous CXCR4. The assay is classed as cell-based, HIV.
Assay [1] deals with CCR5-using HIV-1 isolate (live, replication-competent JR-CSF).

As to Maraviroc, the “G.Luc signal with X4-tropic viruses under maraviroc” value in the assay on X4-tropic viruses is reported as “resistant to maraviroc inhibition”. The “Gaussia luciferase signal of CCR5-mediated infection in the presence of maraviroc” value in assay [1] is “reproducibly reduced”.
